Our source for the Ki values is US7968577B2 (Bristol-Myers Squibb Company, priority 2006, dated 2011).

Structures are written as SMILES.

This test addresses T1, human full-length glucocorticoid receptor (Homo sapiens, UniProt P04150).
T1 construct: recombinantly expressed human full-length glucocorticoid receptor; purchased PanVera Co., Madison, Wis; P2816
T1 sequence (P04150 1-777): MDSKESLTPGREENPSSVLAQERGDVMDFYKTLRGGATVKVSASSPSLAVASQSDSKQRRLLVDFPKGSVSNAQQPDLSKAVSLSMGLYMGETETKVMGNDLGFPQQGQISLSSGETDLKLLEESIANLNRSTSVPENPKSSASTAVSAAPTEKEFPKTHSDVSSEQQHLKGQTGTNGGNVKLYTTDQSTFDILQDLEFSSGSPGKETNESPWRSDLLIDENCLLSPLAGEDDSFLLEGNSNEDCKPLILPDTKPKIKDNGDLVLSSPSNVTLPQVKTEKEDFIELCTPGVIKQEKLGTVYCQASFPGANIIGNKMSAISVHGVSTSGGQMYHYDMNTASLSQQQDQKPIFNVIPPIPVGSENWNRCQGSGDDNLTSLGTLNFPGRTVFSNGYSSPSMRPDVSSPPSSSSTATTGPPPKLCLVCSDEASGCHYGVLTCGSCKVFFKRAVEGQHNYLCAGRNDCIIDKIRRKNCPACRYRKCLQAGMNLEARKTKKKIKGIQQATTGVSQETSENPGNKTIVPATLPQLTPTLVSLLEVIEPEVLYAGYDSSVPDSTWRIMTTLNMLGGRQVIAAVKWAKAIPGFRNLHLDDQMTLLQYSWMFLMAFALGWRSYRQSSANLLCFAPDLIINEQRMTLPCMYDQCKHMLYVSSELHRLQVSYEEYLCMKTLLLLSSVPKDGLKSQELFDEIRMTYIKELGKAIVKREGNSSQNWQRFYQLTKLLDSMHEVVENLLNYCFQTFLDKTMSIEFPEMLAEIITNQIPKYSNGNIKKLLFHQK
Put plainly: Glucocorticoid Receptor Binding Assay (II), fluorescence polarization competitor kit (Fluormone GS1). Particulars: GR Binding Assay (II). As to the method: Glucocorticoid Receptor Binding Assay (II)^b
In order to measure the binding of compounds on the glucocorticoid receptor a commercially available kit was used (Glucocorticoid receptor competitor assay kit, PanVera Co., Madison, Wis., P2816). Briefly, a cell lysate containing recombinantly expressed human full-length glucocorticoid receptor was mixed with a fluorescently labeled glucocorticoid (1 nM Fluormone GS1) in the presence or absence of test compound. After one hour at room temperature, the fluorescence polarization (FP) of the samples were measured.
A general note: Fluorescence polarisation rises when a labelled molecule tumbles more slowly, as on binding a larger partner.
The compound `CC(O)c1cccc(C(c2ccccc2)C(C)(C)C(=O)Nc2nccs2)c1` (centres unmarked) [Example 373, 3-(3-(1-hydroxyethyl)phenyl)-2,2-dimethyl-3-phenyl-N-1,3-thiazol-2-ylpropanamide] came in with a Ki of 320 nM.

With `CC(C)(C(=O)Nc1nccs1)C(c1ccccc1)c1ccc(C#N)cc1` (centres unmarked) [Example 310, 3-(4-cyanophenyl)-2,2-dimethyl-3-phenyl-N-1,3-thiazol-2-ylpropanamide], the Ki was 26.6 nM.

In the case of `Cc1cnc(NC(=O)C(C)(C)[C@H](c2ccccc2)c2ccc(O)cc2)s1` [Example 332, (3R)-3-(4-hydroxyphenyl)-2,2-dimethyl-N-(5-methyl-1,3-thiazol-2-yl)-3-phenylpropanamide], the Ki was 204 nM.

`CC(=O)c1ccc(C(c2ccccc2)C(C)(C)C(=O)Nc2nccs2)cc1` (centres unmarked) [Example 368, 3-(4-Acetylphenyl)-2,2-dimethyl-3-phenyl-N-1,3-thiazol-2-ylpropanamide] came in with an inhibition constant (Ki) of 19.2 nM.

Consider `COc1ccc([C@H](c2ccccc2)C(C)(C)C(=O)Nc2ccncn2)cc1` [Example 278, (3S)-2,2-dimethyl-3-(4-(methyloxy)phenyl)-3-phenyl-N-4-pyrimidinylpropanamide], for which the inhibitory constant (Ki) was 1850 nM.

On to `CC(C)(C(=O)Nc1nncs1)C(c1ccccc1)c1ccc(N2CCC(O)CC2)cc1` (centres unmarked) [Example 241, 3-(4-(4-hydroxy-1-piperidinyl)phenyl)-2,2-dimethyl-3-phenyl-N-1,3,4-thiadiazol-2-ylpropanamide], for which the affinity corresponds to a Ki of 31.3 nM.

Consider `CC(C)(C(=O)Nc1nccs1)[C@H](c1ccccc1)c1ccc(OC(=O)c2ccco2)cc1` [Example 363, 4-((1R)-2,2-dimethyl-3-oxo-1-phenyl-3-(1,3-thiazol-2-ylamino)propyl)phenyl 2-furancarboxylate], for which affinity was put at a Ki of 47 nM.

Compound `COc1ccc([C@@H](c2ccccc2)C(C)(C)C(=O)Nc2nc(C)cs2)cc1` [Example 266, 2,2-dimethyl-3-(4-(methyloxy)phenyl)-N-(4-methyl-1,3-thiazol-2-yl)-3-phenylpropanamide] registered a Ki of 315 nM.

`COc1ccc([C@H](c2ccccc2)C(C)(C)C(=O)Nc2ncc(C)s2)cc1` [Example 267, (3S)-2,2-dimethyl-3-(4-(methyloxy)phenyl)-N-(5-methyl-1,3-thiazol-2-yl)-3-phenylpropanamide] yielded an inhibition constant (Ki) of 111 nM.

In the case of `CC(C)(C(=O)Nc1nccs1)C(c1ccccc1)c1cccc(Br)c1` (centres unmarked) [Example 311, 3-(3-bromophenyl)-2,2-dimethyl-3-phenyl-N-1,3-thiazol-2-ylpropanamide], the affinity corresponds to a Ki of 17.5 nM.

`CC(C)(C(=O)Nc1nncs1)C(c1ccccc1)c1ccc(Br)cc1` (centres unmarked) [Example 318, 3-(4-bromophenyl)-2,2-dimethyl-3-phenyl-N-1,3,4-thiadiazol-2-ylpropanamide] had an inhibition constant Ki of 12.8 nM.

`CC(C)(C(=O)Nc1nccs1)C(c1ccccc1)c1ccc(Br)cc1` (centres unmarked) [Example 317, 3-(4-bromophenyl)-2,2-dimethyl-3-phenyl-N-1,3-thiazol-2-ylpropanamide] displayed a Ki of 23.2 nM.

Turning to `CC(=O)Nc1ccc(C(c2ccccc2)C(C)(C)C(=O)Nc2nccs2)cc1` (centres unmarked) [Example 247, 3-(4-(acetylamino)phenyl)-2,2-dimethyl-3-phenyl-N-1,3-thiazol-2-ylpropanamide], the affinity corresponds to a Ki of 413 nM.

Compound `CC(C)(C(=O)NC1CCCC1)[C@H](c1ccccc1)c1ccc(O)cc1` [Example 336, (3R)-N-cyclopentyl-3-(4-hydroxyphenyl)-2,2-dimethyl-3-phenylpropanamide] had an inhibition constant (Ki) of 504 nM.

The compound `CCOC(=O)c1csc(NC(=O)C(C)(C)[C@@H](c2ccccc2)c2ccc(OC)cc2)n1` [Example 263, ethyl 2-((2,2-dimethyl-3-(4-(methyloxy)phenyl)-3-phenylpropanoyl)amino)-1,3-thiazole-4-carboxylate] returned an inhibition constant Ki of 130 nM.

In the case of `COc1ccc(C(c2ccccc2)C(C)(C)C(=O)Nc2nncs2)cc1F` (centres unmarked) [Example 284, 3-(3-fluoro-4-(methyloxy)phenyl)-2,2-dimethyl-3-phenyl-N-1,3,4-thiadiazol-2-ylpropanamide], the Ki was found to be 26.9 nM.

As for `CC(C)(C(=O)Nc1nccs1)[C@H](c1ccccc1)c1ccc(O)c(C#N)c1` [Example 358], the inhibitory constant (Ki) came out at 22.9 nM.

For `COc1ccc([C@H](c2ccccc2)C(C)(C)C(=O)Nc2nc(C)cs2)cc1` [Example 265, 2,2-dimethyl-3-(4-(methyloxy)phenyl)-N-(4-methyl-1,3-thiazol-2-yl)-3-phenylpropanamide], the affinity corresponds to a Ki of 193 nM.

For the compound `CC(C)(C(=O)Nc1nncs1)C(c1ccccc1)c1ccc(N2CCOCC2)c(F)c1` (centres unmarked) [Example 244, 3-(3-fluoro-4-(4-morpholinyl)phenyl)-2,2-dimethyl-3-phenyl-N-1,3,4-thiadiazol-2-ylpropanamide], the affinity corresponds to a Ki of 17.8 nM.

For `CC(O)c1ccc(C(c2ccccc2)C(C)(C)C(=O)Nc2nncs2)cc1` (centres unmarked) [Example 372], the affinity, expressed as Ki, was 96.1 nM.

Compound `CC(C)(C)OC(=O)N1CCN(c2ccc(C(c3ccccc3)C(C)(C)C(=O)Nc3nncs3)cc2)CC1` (centres unmarked) [Example 238, 1,1-dimethylethyl 4-(4-(2,2-dimethyl-3-oxo-1-phenyl-3-(1,3,4-thiadiazol-2-ylamino)propyl)phenyl)-1-piperazinecarboxylate] displayed an inhibitory constant (Ki) of 408 nM.

In the case of `CC(C)(C(=O)Nc1nccs1)[C@H](c1ccccc1)c1ccc(OC(=O)c2ccoc2)cc1` [Example 365, 4-((1R)-2,2-dimethyl-3-oxo-1-phenyl-3-(1,3-thiazol-2-ylamino)propyl)phenyl 3-furancarboxylate], the Ki is 31.9 nM.

On to `COc1ccc(C(c2ccccc2)C(C)(C)C(=O)Nc2nncs2)cc1F` (centres unmarked) [Example 285, 3-(3-fluoro-4-(methyloxy)phenyl)-2,2-dimethyl-3-phenyl-N-1,3,4-thiadiazol-2-ylpropanamide], for which the affinity corresponds to a Ki of 13.8 nM.

For the compound `COc1ccc([C@H](c2ccccc2)C(C)(C)C(=O)NC2CCCC2)cc1` [Example 273, (3S)-N-cyclopentyl-2,2-dimethyl-3-(4-(methyloxy)phenyl)-3-phenylpropanamide], the affinity, expressed as Ki, was 987 nM.

Compound `CC(C)(C(=O)Nc1nccs1)C(c1ccccc1)c1ccc(Cl)cc1` (centres unmarked) [Example 306, 3-(4-chlorophenyl)-2,2-dimethyl-3-phenyl-N-1,3-thiazol-2-ylpropanamide] returned a Ki of 26.3 nM.

As for `CC(C)(C(=O)N1CCOCC1)[C@@H](c1ccccc1)c1ccc(O)cc1` [Example 337, 4-((1S)-2,2-dimethyl-3-(4-morpholinyl)-3-oxo-1-phenylpropyl)phenol], the inhibition constant (Ki) came to 2090 nM.

`CC(C)(C(=O)Nc1nccs1)C(c1ccccc1)c1ccc(-c2ccoc2)cc1` (centres unmarked) [Example 376, 3-(4-(3-furanyl)phenyl)-2,2-dimethyl-3-phenyl-N-1,3-thiazol-2-ylpropanamide] returned an inhibitory constant (Ki) of 15.8 nM.

The compound `Cc1ccc(C(c2ccc(N3CCOCC3)cc2)C(C)(C)C(=O)Nc2nncs2)cc1` (centres unmarked) [Example 226, 2,2-dimethyl-3-(4-methylphenyl)-3-(4-(4-morpholinyl)phenyl)-N-1,3,4-thiadiazol-2-ylpropanamide] gave an inhibition constant Ki of 9.4 nM.

In turn, `COc1ccc([C@H](c2ccccc2)C(C)(C)C(=O)NC2CC2)cc1` [Example 269, (3S)-N-cyclopropyl-2,2-dimethyl-3-(4-(methyloxy)phenyl)-3-phenylpropanamide] gave a Ki of 1300 nM.

Broadly, the Ki is the dissociation constant of the complex between target and ligand, obtained from inhibition or displacement.
